Patent US11564911B2, “Small molecule dual-inhibitors of TRPV4 and TRPA1 for sanitizing and anesthetizing” (Duke University, priority 2016, dated 2023)
“Also recorded” adds a separate entry of the source.

Tests used:
[1] = test system: C57BL/6J mice, caerulein-evoked acute pancreatitis; assay: Caerulein-evoked acute pancreatitis mouse model; assay type: in vivo; details: 10 mg/kg i.p., 30 min before caerulein
Experimental: C57BL/6J male mice 8-10 weeks of age were subjected to acute pan-creatitis by intraperitoneal injections of supramaximal doses of caerulein (50 μg/kg) every hour for a total of 6 h, as previously described in^61. Control animals received 25% DMSO-saline solution by intraperitoneal injection every hour for 6 h. Compound 16-8 was dissolved in this vehicle (10 mg/kg) and injected i.p. 30 min prior to the first injection of caerulein. Animals were sacrificed 1 h after the last injection. Blood was collected and pancreatic tissue was promptly isolated, weighed for determination of pancreas wet weight/body weight ratio. Samples of tis-sues were fixed overnight in 10% neutral-buffered formalin, paraffin embedded and H&E-stained, or pancreatic tissue was quickly frozen and assessed for myeloperoxidase (MPO) activity. Serum amylase, MPO and histologic evaluation were conducted as described previously^61.
Assessment of nocifensive behavior^8: Mice were housed in individual cages and video-recorded during the entire experiment. Two mice at a time were observed. Linear movement was measured as one event when mice passed through the median plane of the cage. Analysis began immediately after the first caerulein/vehicle injec-tion and continued until the end of the experiment. Results were expressed as the sum of the movement events spanning the 6 h time-period following the first injection.

TRPV4 [2] = target: T1, TRPV4 (Sus scrofa, UniProt B3VP30); assay: Ca++ imaging in primary articular chondrocytes, GSK101 stimulation; assay type: cell-based; details: primary articular chondrocytes (pig), 5 nM GSK101
T1 construct: primary cells, which express functional and biologically-relevant TRPV4 without directed over-expression of the channel; endogenous in cells; host or cells: primary porcine articular chondrocytes (femoral condyles)
T1 sequence (B3VP30 1-871): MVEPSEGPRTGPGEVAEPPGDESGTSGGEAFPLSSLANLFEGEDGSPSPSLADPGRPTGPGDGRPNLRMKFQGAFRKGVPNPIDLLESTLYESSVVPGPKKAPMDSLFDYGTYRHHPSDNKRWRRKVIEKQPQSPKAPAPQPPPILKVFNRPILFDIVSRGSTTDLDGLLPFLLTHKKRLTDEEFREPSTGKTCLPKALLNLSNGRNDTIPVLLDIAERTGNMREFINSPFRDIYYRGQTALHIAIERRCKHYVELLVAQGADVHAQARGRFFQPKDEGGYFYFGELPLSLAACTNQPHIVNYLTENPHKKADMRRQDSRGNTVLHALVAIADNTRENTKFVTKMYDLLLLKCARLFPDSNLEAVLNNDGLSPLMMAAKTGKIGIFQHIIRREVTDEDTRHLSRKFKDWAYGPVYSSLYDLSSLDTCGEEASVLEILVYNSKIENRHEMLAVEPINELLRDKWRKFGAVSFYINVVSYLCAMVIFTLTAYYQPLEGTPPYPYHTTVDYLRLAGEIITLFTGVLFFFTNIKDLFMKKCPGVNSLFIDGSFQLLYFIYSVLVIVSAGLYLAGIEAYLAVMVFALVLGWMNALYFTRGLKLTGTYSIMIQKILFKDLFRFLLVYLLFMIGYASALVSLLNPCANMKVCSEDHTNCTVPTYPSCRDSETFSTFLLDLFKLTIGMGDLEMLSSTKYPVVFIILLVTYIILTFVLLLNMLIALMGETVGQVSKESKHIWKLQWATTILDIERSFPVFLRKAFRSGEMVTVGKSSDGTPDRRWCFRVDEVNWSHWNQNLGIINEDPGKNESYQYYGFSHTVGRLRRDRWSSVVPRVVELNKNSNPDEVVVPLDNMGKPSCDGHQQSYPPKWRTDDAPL
Experimental: FIGS. 28A-28B: Compound 16-8 inhibits TRPV4 in I° cells more potently than GSK205. […] Inset: Chondrocytes responding to activation with GSK101, fura-2 Ca++ imaging; right-hand image taken at 5 sec after GSK101 application. […] (FIG. 28B) 1° (primary) astrocytes (rat); dose-response comparison between 16-8 and GSK205 in response to 5 nM GSK101. Inset: Astrocytes responding to activation with GSK101; right-hand image taken at 5 sec after GSK101 application (mean±SEM, n=5 independent expts, 200 cells/expt; *p<0.05, t-test).
Primary porcine chondrocytes derived from femoral condyles of skeletally mature pigs were cultured and subjected to Ca++ imaging as described previously^19,32,62,63.

[3] = test system: primary mouse keratinocytes (1° MK); assay: UVB-evoked Ca++ signaling in primary mouse keratinocytes (fluo-4); assay type: cell-based
Experimental: Ca++ imaging of 1° MK was conducted following routine procedures. For UVB stimulation, a customized device was built. The system comprised a printed circuit board for electrical interconnects and mechanical support and an ultraviolet light-emitting diode (UV LED).
The operating wavelength was 295 nm (FIG. 2A), with a full-width half-max of 12 nm. The optical power was 500 mW. The focal point was aimed at the plane of the upper surface of the quartz coverslip, which was used to minimize UV absorption along the optical path towards the cells (FIG. 2A-C). The optical intensity at the focal point was estimated to be 150 mW/mm^2.
(§1) Ca++ imaging of mouse 1° MK in response to chemical activation of TRPV4 was conducted after loading with 2 μM fura2-AM, following a ratiometric Ca2+ imaging protocol with 340/380 nm […] for dual excitation. Ratios of emissions were acquired at 0.5 Hz. ΔR/R0 was determined as the fraction of the increase of a given ratio over baseline ratio, divided by baseline ratio. For stimulation of cells with UVB, where fura-2 was not suitable because of the proximity of stimulation with 340/380 nm and 295 nm, 2 μM fluo4-AM was used instead. Ca++ imaging was carried out at 488 nm excitation, acquisition of emissions at 0.5 Hz, expressed as ΔF/F0. In the custom-built UV optical system, UV LEDs were capped with a ball lens, a transparent optical window in the shape of a hemispherical lens (FIG. 2B). The LED output optical beam focused at 15-20 mm from the lens, with a spot diameter of approximately 1.5-2.0 mm (FIG. 2C). […] The thermal equilibration stage was set for physiological temperature.

TRPV4 [4] = target: T2, TRPV4 (Mus musculus, UniProt Q9EPK8); assay: Ca++ transients in primary mouse keratinocytes on chemical activation of TRPV4 (GSK101, 4α-PDD); assay type: cell-based; details: 1° MK, 5 nM GSK101; GSK205 20 μM
T2 construct: endogenous in cells; host or cells: primary mouse epidermal keratinocytes (1° MK)
T2 sequence (Q9EPK8 whole entry): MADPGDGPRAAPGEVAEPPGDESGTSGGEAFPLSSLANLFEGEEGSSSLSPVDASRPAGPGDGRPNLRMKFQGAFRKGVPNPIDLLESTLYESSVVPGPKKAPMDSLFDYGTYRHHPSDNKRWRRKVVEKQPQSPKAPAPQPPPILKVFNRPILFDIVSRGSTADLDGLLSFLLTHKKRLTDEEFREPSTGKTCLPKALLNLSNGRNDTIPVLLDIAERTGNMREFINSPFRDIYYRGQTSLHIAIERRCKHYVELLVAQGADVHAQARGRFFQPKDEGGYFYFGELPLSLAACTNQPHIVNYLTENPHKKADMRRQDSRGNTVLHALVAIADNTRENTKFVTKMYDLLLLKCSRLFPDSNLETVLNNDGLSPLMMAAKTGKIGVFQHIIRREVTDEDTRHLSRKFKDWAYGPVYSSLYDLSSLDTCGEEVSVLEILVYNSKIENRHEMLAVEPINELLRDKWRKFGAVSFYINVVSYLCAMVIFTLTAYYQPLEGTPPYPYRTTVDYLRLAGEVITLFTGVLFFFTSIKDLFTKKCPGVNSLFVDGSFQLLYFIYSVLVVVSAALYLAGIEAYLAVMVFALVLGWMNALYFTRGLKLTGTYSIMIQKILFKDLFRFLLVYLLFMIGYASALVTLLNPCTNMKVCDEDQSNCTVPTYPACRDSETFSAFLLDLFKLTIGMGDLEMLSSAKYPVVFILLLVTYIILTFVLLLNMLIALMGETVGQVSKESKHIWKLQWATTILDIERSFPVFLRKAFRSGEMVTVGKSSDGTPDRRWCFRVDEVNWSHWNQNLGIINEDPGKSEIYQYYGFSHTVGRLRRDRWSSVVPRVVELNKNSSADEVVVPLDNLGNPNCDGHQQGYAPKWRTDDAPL
Experimental: as §1, with “temperature. We confirmed the non-thermal nature of UVB stimulation using the customized 295 nm LED device in a dedicated experiment (FIG. 2D), thus confirming the specific modality of stimulation as UVB.” for “temperature.”

[5] = test system: primary mouse keratinocytes (1° MK); assay: IL-1β secreted by cultured keratinocytes after UVB exposure (ELISA); assay type: cell-based; details: 5 μM GSK205
Experimental: Before UV irradiation, culture media was replaced with PBS. The cells were then irradiated at a dose of 50 mJ/cm^2 with UVB. 24 hours later, supernatants were assayed using IL-1β ELISA (R&D Systems, Minneapolis, Minn.).

[6] = UVB permeation of foot-pad skin; design: species or system mouse; details: topically applied, vs vehicle
Experimental: The UV LED was powered with 20 mA of current, resulting in 500 μW of optical power in a circular focal spot 1.5 mm in diameter, with 70% of the total flux in a 0.5 mm beam radius. The UV optical power transmitted through the sample was detected by a Hamamatsu S127-66BR UV detector, and the output of the photodetector was measured using a Keithley 236 source measure unit. Next, the foot-pad epidermis of a mouse was measured for UV transmission by placing it on a quartz coverslip and exposure to the UV beam. The vehicle-control group was treated with the alcohol and glycerol solution only. Another control group consisted of a commercially-available SPF100 preparation sunscreen in form of a cream, which was applied similar to the vehicle-control. The data for the GSK205 and sunscreen was normalized to this control data.

Structure (SMILES) | histopathological score for pancreas inflammation [1] | myelo-peroxidase content of the pancreas [1] | pain behavior (movement events over 6 h) [1] | pancreatic edema [1] | serum amylase [1] | potency versus GSK205, dose-response of peak ΔCa++ (TRPV4 [2]) | UVB-evoked Ca++ signal ([3]; GSK205 20 μM) | ET1-augmented UVB-induced Ca++ transients ([3]; co-exposure to ET1) | GSK101-evoked Ca++ transient (TRPV4 [4]) | UVB-induced increase in IL-1β secretion by 1° MK [5] | UVB permeation of paw-pad skin [6]
CN(CCc1ccc(Nc2nc(-c3ccccc3)cs2)cc1)Cc1ccccc1 [Compound 16-8] | significantly reduced | significantly reduced | virtually eliminated | virtually eliminated | significantly reduced; also recorded: reduced, but not significantly | significantly more potent than GSK205 | – | – | – | – | –
CN(CCc1ccc(Nc2nc(-c3cccnc3)cs2)cc1)Cc1ccccc1 [GSK205] | – | – | – | – | – | – | strongly down-regulated | greatly diminished | completely blocked | completely eliminated | equal UVB permeation
